Test results reported in US8889591B2, “Herbicidal compositions comprising 4-amino-3-chloro-5-fluoro-6-(4-chloro-2-fluoro-3-methoxyphenyl)pyridine-2-carboxylic acid or a derivative thereof and bromobutide, daimuron, oxaziclomefone or pyributicarb” (Dow Agrosciences LLC, priority 2012, dated 2014).

Columns and labels:
Experiment in all cases: Postemergence foliar-applied greenhouse weed control, direct-seeded rice system
[1] = test system: ECHCG; assay type: in vivo, Echinochloa crusgalli (L.) Beauv.
Excerpt: (§1) Seeds or nutlets of the desired test plant species were planted in a soil matrix prepared by mixing a loam or sandy loam soil (e.g., 28.6 percent silt, 18.8 percent clay, and 52.6 percent sand, with a pH of about 5.8 and an organic matter content of about 1.8 percent) and calcareous grit in an 80 to 20 ratio. The soil matrix was contained in plastic pots with a volume of 1 quart and a surface area of 83.6 square centimeters (cm^2). When required to ensure good germination and healthy plants, a fungicide treatment and/or other chemical or physical treatment was applied. The plants were grown for 8-22 days in a greenhouse with an approximate 14 h photoperiod which was maintained at about 29° C. during the day and 26° C. during the night. Nutrients (Peters Excel® 15-5-15 5-Ca 2-Mg and iron chelate) were applied in the irrigation solution as needed and water was added on a regular basis. Supplemental lighting was provided with overhead metal halide 1000-Watt lamps as necessary. The plants were employed for testing when they reached the first through fourth true leaf stage.
(§2) Treatments consisted of the acid or esters of 4-amino-3-chloro-5-fluoro-6-(4-chloro-2-fluoro-3-methoxy-phenyl)pyridine-2-carboxylic acid (Compound A), each formulated as an SC (suspension concentrate), and various herbicidal components alone and in combination. Forms of compound A were applied on an acid equivalent basis.
(§3) Other herbicidal components were applied on an active ingredient basis and included diamuron formulated as an EC (emulsifiable concentrate) and oxaziclomefone (technical grade material).
(§4) Treatment requirements were calculated based upon the rates being tested, the concentration of active ingredient or acid equivalent in the formulation, and a 12 mL application volume at a rate of 187 L/ha.
(§5) For treatments comprised of formulated compounds, measured amounts of compounds were placed individually in 25 mL glass vials and diluted in a volume of 1.25% (v/v) Agri-Dex® crop oil concentrated to obtain 12× stock solutions. […] Application solutions were prepared by adding an appropriate amount of each stock solution (e.g., 1 mL) and diluted to the appropriate final concentrations with the addition of 10 mL of an aqueous mixture of 1.25% (v/v) crop oil concentrate so that the final spray solutions contained 1.25+/−0.05% (v/v) crop oil concentrate.
(§6) For treatments comprised of technical compounds, weighed amounts can be placed individually in 25 mL glass vials and dissolved in a volume of 97:3 v/v acetone/DMSO to obtain 12× stock solutions. […] Application solutions can be prepared by adding an appropriate amount of each stock solution (e.g., 1 mL) and diluted to the appropriate final concentrations with the addition of 10 mL of an aqueous mixture of 1.5% (v/v) crop oil concentrate so that the final spray solutions contain 1.25% (v/v) crop oil concentrate. When technical materials are used, the concentrated stock solutions can be added to the spray solutions so that the final acetone and DMSO concentrations of the application solutions are 16.2% and 0.5%, respectively.
(§7) For treatments comprised of formulated and technical compounds, weighed amounts of the technical materials were placed individually in 25 mL glass vials and dissolved in a volume of 97:3 v/v acetone/DMSO to obtain 12× stock solutions, and measured amounts of the formulated compounds were placed individually in 25 mL glass vials and diluted in a volume of 1.5% (v/v) crop oil concentrate or water to obtain 12× stock solutions. […] Application solutions were prepared by adding an appropriate amount of each stock solution (e.g., 1 mL) and diluted to the appropriate final concentrations with the addition of an appropriate amount of an aqueous mixture of 1.5% (v/v) crop oil concentrate so that the final spray solutions contained 1.25% (v/v) crop oil concentrate. […]

[2] = test system: ECHCO; assay type: in vivo, Echinochloa colona (L.) Link
Excerpt: as §1, §2, §3, §4, §5, §6, §7

[3] = test system: IPOHE; assay type: in vivo, Ipomoea hederacea Jacq.
Excerpt: as §1, §2, §3, §4, §5, §6, §7

[4] = test system: SCPJU; assay type: in vivo, Schoenoplectus juncoides (Roxb.) Palla
Excerpt: as §1, with “stage. […]” for “stage.”
as §4
For treatments comprised of formulated compounds, measured amounts of compounds were placed individually in 25 mL glass vials and diluted in a volume of 1.25% (v/v) Agri-Dex® crop oil concentrated to obtain 12× stock solutions. […]
For treatments comprised of formulated and technical compounds, weighed amounts of the technical materials were placed individually in 25 mL glass vials and dissolved in a volume of 97:3 v/v acetone/DMSO to obtain 12× stock solutions, and measured amounts of the formulated compounds were placed individually in 25 mL glass vials and diluted in a volume of 1.5% (v/v) crop oil concentrate or water to obtain 12× stock solutions. […]

[5] = Compound A Benzyl Ester 4.38 gae/ha alone
[6] = Compound A Benzyl Ester 8.75 gae/ha alone

## COc1c(Cl)ccc(-c2nc(C(=O)OCc3ccccc3)c(Cl)c(N)c2F)c1F [Compound A Benzyl Ester]
[1]; [5]
  Visual Weed Control (%) - 20 DAA ECHCG Obs: 40%
[1]; [6]
  Visual Weed Control (%) - 20 DAA ECHCG Obs: 90%
[2]; [5]
  Visual Weed Control (%) - 20 DAA ECHCO Obs: 40%
[2]; [6]
  Visual Weed Control (%) - 20 DAA ECHCO Obs: 90%
[3]; [5]
  Visual Weed Control (%) - 20 DAA IPOHE Obs: 10%
[3]; [6]
  Visual Weed Control (%) - 20 DAA IPOHE Obs: 25%
[3]; Compound A Benzyl Ester 17.5 gae/ha alone
  Visual Weed Control (%) - 20 DAA IPOHE Obs: 50%
[4]; [5]
  Visual Weed Control (%) - 22 DAA SCPJU Obs: 75%
[4]; [6]
  Visual Weed Control (%) - 22 DAA SCPJU Obs: 80%
